Measured values reported in US20250120905A1, “THERAPEUTIC AGENTS TARGETING THE LYMPHATIC SYSTEM” (VIVASOR, INC, priority 2021, published 2025).

How the values were obtained:
[1] = system: patients with moderately to severely active Rheumatoid Arthritis (RA); experiment: Phase 1b study of Enbrel administered by SOFUSA: DAS28 (ESR/CRP) disease activity scores; type: in vivo, human; conditions: Patient ID 01-002
Source text: (§1) An exemplary Sofusa Lymphatic Delivery System (SOFUSA) was designed to access the lymphatic system directly through the skin at the epidermal/dermal boundary (See FIG. 1) such that the infusion accessed afferent lymphatic capillaries when employed as described in Examples 2 and 3, below. The exemplary SOFUSA system was comprised of a microneedle device (see, e.g., FIG. 3A) and a syringe pump configured to administer anti-arthritic therapeutic agent, such as Enbrel, into the lymphatic circulation through the skin. This configuration was optimized to provide flow rates and pharmacokinetics using lymphatic anti-arthritic drug delivery in early phase clinical trials. The exemplary SOFUSA device was attached to the body of subjects via an attachment system that domed the skin upwards for consistent microneedle penetration, and a nylon strap with Velcro® that comfortably held the device down on the skin, keeping the microneedles in position until the dosing was complete (See, e.g., FIG. 2). Dose volume and infusion rate were set with an infusion pump (See, e.g., FIG. 2).
(§2) SOFUSA microneedles were arranged into an array and placed on the skin using a mechanical impact applicator. A solution comprising Enbrel at a concentration of approximately 50 milligrams per milliliter (50 mg/mL) was then administered at a controlled infusion rate into the device, through the microneedles and into the skin using an external syringe pump. The solution comprising Enbrel was delivered into the body at an infusion rate of 0.5 milliliters per hour (mL/hr), which corresponded to an infusion period of one hour to deliver a 25 mg dose and 2 hours to deliver a 50 mg dose.
(§3) In this ongoing Phase 1b study, 25 mg of Enbrel (50% of the non-SOFUSA delivered subcutaneous dose) was administered lymphatically once weekly via SOFUSA to patients for 12 weeks. The study design calls for an increase in the SOFUSA-administered Enbrel dose to 50 mg during the dose escalation phase of the study (weeks 4-8) provided that dose escalation criteria are met. Patients remain on either the 25 mg or 50 mg dose for the final maintenance phase of the study. The dose escalation criteria for the Enbrel dose to be increased from 25 mg to 50 mg are: a DAS28 (ESR)≥3.2 and an increase in DAS28 (ESR)>0.6 compared to baseline.
(§4) Patients entered in the study had been treated with subcutaneous Enbrel with or without continuation of MTX, and have had either a primary (lack of sufficient efficacy with initial treatment) or secondary (initial efficacy but became inefficacious over time) inadequate response with the maximum approved dose of Enbrel. […] To the extent that inadequate response to Enbrel in some patients may be due to insufficient Enbrel levels in target lymphoid tissues or an inadequate immunologic response, Enbrel administered into the lymphatic system via SOFUSA was therefore theorized to provide a favorable clinical response despite an inadequate response to subcutaneous Enbrel administration.
(§5) This patient received SOFUSA-administered Enbrel at a 25 mg dosage once weekly for 12 weeks. Each week, SOFUSA was applied to the dorsal forearm with alternating left and right arm locations and the SOFUSA-administered Enbrel solution was infused through the skin into the lymphatic circulation for one hour.
Disease Activity Scores (DAS) 28 (DAS28) DAS28) were calculated based on 28 tender and swollen joints, Patient Global Assessment of Disease Activity, and C-Reactive Protein (CRP) or Erythrocyte Sedimentation Rate (ESR). DAS28 (ESR) and DAS28 (CRP) scores for Patient ID 01-002 are shown in FIG. 4A and FIG. 4B, respectively.

[2] = system: patients with moderately to severely active Rheumatoid Arthritis (RA); experiment: Phase 1b study of Enbrel administered by SOFUSA: tender and swollen joint counts; type: in vivo, human
Source text: as §1, §2, §3, §4, §5
Joint counts were performed every 2 weeks. There was observed a consistent decrease in the number of tender and swollen joints using both 66/68 and 28 joint count criteria for the entire 12-week dosing period (See FIG. 5A and FIG. 5B, respectively).

local lymphatic function = experiment: Near-Infrared Fluorescence (NIRF) lymphatic imaging with Indocyanine Green; type: in vivo, human
Protocol: The local lymphatic function was measured using Near-Infrared Fluorescence (NIRF) imaging techniques with Indocyanine Green (ICG) at the beginning, at 6 weeks, and at the end of the study. […] The ICG was delivered at the opposite arm location as the Enbrel dosing.
In this regard, it has been speculated that lymphatic dysfunction may encourage the development of rheumatic autoimmune diseases such as scleroderma, lupus, and rheumatoid arthritis (see, e.g., Aletaha, D., et al., Ann. Rheum. Dis., 75, 1479-1485 (2016)). […] NIRF imaging of the lymphatics after infusion of a solution of ICG at the beginning, middle and end of the study. NIRF imaging was used to assess lymphatic pumping in RA patients before and after treatment with SOFUSA with Enbrel. Additionally, the imaging provided a visualization of the lymphatic vessels and was intended to confirm that SOFUSA delivers ICG solution directly into the lymphatics.

[3] = system: patients with moderately to severely active Rheumatoid Arthritis (RA); experiment: Phase 1b study of Enbrel administered by SOFUSA: ACR response; type: in vivo, human; conditions: week 10 vs baseline (week 0); Patient 01-002 and Patient 01-004; SOFUSA Enbrel 25 mg once weekly
Source text: as §1
SOFUSA microneedles were arranged into an array and placed on the skin using a mechanical impact applicator. […]

[4] = Etanercept lymph node concentrations after IV, SC, ID or lymphatic (Sofusa) delivery; type: in vivo; conditions: for etanercept concentration in lymph nodes, lymphatic (Sofusa) vs IV administration: percentage initial dose per gram of lymph tissue
Protocol: Etanercept was administered to subjects either via intravenous (IV), subcutaneous (SC), Intradermal (ID), or lymphatic (Sofusa) delivery. Average etanercept concentrations (expressed as percentage initial dose per gram of lymph tissue) in lymph node tissue was then determined at twelve and 36 hours post-administration. […] In particular, etanercept concentrations at 12 hours post lymphatic (Sofusa) administration were approximately 40-fold greater, and approximately 9-fold greater at 36 hours, than etanercept concentrations administered via IV.
Methods and procedures for some of these experiments have been adapted from Aldrich, et al., Arthritis Res. Ther., (2017), 19:116 (DOI 10.1186/s13075-017-1323-z; Open Access) which is incorporated by reference herein in its entirety for all purposes.

[5] = system: patients with moderately to severely active Rheumatoid Arthritis (RA); experiment: Phase 1b study of Enbrel administered by SOFUSA: patient/physician disease activity and pain Visual Analog Scale; type: in vivo, human; conditions: for Patient Assessment of Pain (VAS) decrease / Patient Global Assessment of Disease Activity (VAS) decrease / Physician Global Assessment of Disease Activity (VAS) decrease: SOFUSA Enbrel 25 mg once weekly for 12 weeks
Source text: as §1, §2, §3, §4, §5
Ratings were performed by each patient and physician on a Visual Analog Scale (VAS) every 2 weeks for disease activity (patient and physician) and disease-related pain (patient). […] In addition, the Patient Assessment of Pain for Patient ID 01-002 decreased from 46 mm at week 0 to 29 mm at week 12 (i.e., 37.0% decrease). The Physician Global Assessment of Disease Activity for Patient ID 01-002 decreased substantially from 50 mm at week 0 to 15 mm at week 12, corresponding to a 70.0% decrease in disease activity.

patients with RA = conditions: cited from earlier work
[6] = system: patients with moderately to severely active Rheumatoid Arthritis (RA); experiment: Phase 1b study of Enbrel administered by SOFUSA: DAS28 (ESR/CRP) disease activity scores; type: in vivo, human; conditions: Patient 01-004; SOFUSA Enbrel 25 mg once weekly; indicative of remission
[7] = before SOFUSA dosing, inadequate response to weekly 50 mg Enbrel subcutaneous
[8] = Patient 01-002, by week 12 of the study
[9] = Patient ID 01-002 (FIG. 5), week 0 to week 12, SOFUSA Enbrel 25 mg once weekly
[10] = Patient ID 01-004, SOFUSA Enbrel 25 mg once weekly for 12 weeks
[11] = Patient ID 01-006, SOFUSA Enbrel 25 mg once weekly for 12 weeks
[12] = Patient ID 01-002, SOFUSA Enbrel 25 mg once weekly
[13] = Patient ID 01-002, before SOFUSA dosing
[14] = Patient ID 01-002, week 0 to week 12, SOFUSA Enbrel 25 mg once weekly

etanercept [Enbrel]
DAS28 (ESR) at week 12 ([1]; SOFUSA Enbrel 25 mg once weekly, baseline 4.58): 3.02
DAS28 (CRP) at Week 12 ([1]; SOFUSA Enbrel 25 mg once weekly, baseline 4.99): 3.12
DAS28 (ESR) decrease from baseline ([1]; SOFUSA Enbrel 25 mg once weekly, week 12 vs baseline 4.58): 34.1%
DAS28 (CRP) decrease from baseline ([1]; SOFUSA Enbrel 25 mg once weekly, week 12 vs baseline 4.99): 37.5%
DAS28 (ESR) at Week 10 (lowest achieved) ([1]; after 10 weekly 25 mg SOFUSA Enbrel doses, level of remission): 2.10
DAS28 (CRP) at baseline [1, 7]: 4.99
DAS28 (CRP) at screening [1, 7]: 4.94
DAS28 (ESR) at baseline [1, 7]: 4.58
DAS28 (ESR) at screening [1, 7]: 4.62
SJC66 decrease (ACR response section) [2, 8]: 55.6%
TJC68 decrease (ACR response section) [2, 8]: 58.8%
decrease in number of swollen joints, 28-Joint Count [2, 9]: 28.6%
decrease in number of swollen joints, full 66-Joint Count [2, 9]: 44.4%
decrease in number of tender joints, 28 Joint Count [2, 9]: 90.9%
decrease in number of tender joints, full 68-Joint Count [2, 9]: 70.6%
SJC66 decrease [2, 10]: 66.7%
TJC68 decrease [2, 10]: 60.0%
SJC66 change [2, 11]: unchanged
TJC68 decrease [2, 11]: 70.6%
lymphatic pump rate at week 0 (local lymphatic function; week 0, before SOFUSA treatment, ICG at opposite arm): less than 0.5 pumps per minute
lymphatic vessels visible by NIRF imaging at week 6 (local lymphatic function; week 6, after 6 SOFUSA Enbrel doses, vs week 0 (very few vessels visible)): significantly more lymphatic vessels could be imaged
lymphatic pump rate at week 6 (local lymphatic function; week 6, after 6 SOFUSA Enbrel doses, ICG at opposite arm): greater than 2 pumps per minute
ACR 50% response [3]: achieved
etanercept concentration in lymph nodes, lymphatic delivery compared to all other tested delivery routes (IV, SC, ID) ([4]; 12 and 36 hours post-administration, FIG. 12): far greater
etanercept concentration in lymph nodes, lymphatic (Sofusa) vs IV administration ([4]; 12 hours post administration): approximately 40 fold
etanercept concentration in lymph nodes, lymphatic (Sofusa) vs IV administration ([4]; 36 hours post administration): approximately 9 fold
Patient Assessment of Pain (VAS) decrease (ACR response section) [5, 8]: 69.6%
Patient Global Assessment of Disease Activity (VAS) decrease (ACR response section) [5, 8]: 63.5%
Physician Global Assessment of Disease Activity (VAS) decrease (ACR response section) [5, 8]: 50.0%
Patient Assessment of Pain (VAS) at week 12 [5, 12]: 29 mm
Patient Global Assessment of Disease Activity (VAS, 100 mm) at week 12 [5, 12]: 21 mm
Physician Global Assessment of Disease Activity (VAS) at week 12 [5, 12]: 15 mm
Patient Assessment of Pain (VAS) at week 0 [5, 13]: 46 mm
Patient Global Assessment of Disease Activity (VAS, 100 mm) at week 0 [5, 13]: 52 mm
Physician Global Assessment of Disease Activity (VAS) at week 0 [5, 13]: 50 mm
Patient Assessment of Pain, decrease [5, 14]: 37.0%
Patient Global Assessment of Disease Activity, overall reduction [5, 14]: 59.6%
Physician Global Assessment of Disease Activity, decrease [5, 14]: 70.0%
Patient Assessment of Pain (VAS) decrease ([5]; Patient ID 01-004): 100.0%
Patient Global Assessment of Disease Activity (VAS) decrease ([5]; Patient ID 01-004): 46.7%
Physician Global Assessment of Disease Activity (VAS) decrease ([5]; Patient ID 01-004): 85.4%
Patient Global Assessment of Disease Activity (VAS) decrease at week 10 ([5]; Patient ID 01-004, week 10 of the study): 73.3%
Patient Assessment of Pain (VAS) decrease ([5]; Patient ID 01-006): 98.9%
Patient Global Assessment of Disease Activity (VAS) decrease ([5]; Patient ID 01-006): 97.1%
Physician Global Assessment of Disease Activity (VAS) decrease ([5]; Patient ID 01-006): 75.4%
efficacy response rate, ACR70 (patients with RA; Enbrel in combination with MTX, delivered systemically): < 50%
patients achieving ACR70 (patients with RA; Enbrel plus MTX, at 3 and 6 months, Enbrel prescribing information): 15%
DAS28 (ESR) at week 10 [6]: 2.10
